{
  "source": "patent US9708272B2",
  "about": "“Inhibitors of α-amino-β-carboxymuconic acid semialdehyde decarboxylase” (TES Pharma S.r.l., priority 2014, dated 2017)",
  "key": {"[1]": {"system": "SIRT1-regulated genes (Sod2)", "experiment": "RT-qPCR analysis of SIRT1-regulated genes in Hepa-1.6 cells", "format": "cell-based", "details": "Hepa-1.6 hepatic cell line; 24 hrs", "method": "(§1) Cells (AML-12, Hepa-1.6, HEK-293, primary human and murine hepatocytes) are treated with different concentrations of a compound of Formula (I), Formula (Ia), Formula (Ib), Formula (II), or Formula (III), or a pharmaceutically acceptable salt thereof and the gene expression of ACMSD, Pgc1a, Sod1, and Sod2 (MnSOD) is determined using RT-qPCR. Total RNA is extracted from cells and the extracted RNA is treated with DNase and used for reverse transcription (RT).\n(§2) Gene expression of ACMSD and genes known to be regulated by SIRT1, (an enzyme that is strictly NAD^+ dependent) such as Pgc1a, Sod1, Sod2 (MnSOD), were analysed in AML-12 cells, Hepa-1.6 cells and primary murine hepatocytes treated with Compound 1 or 17.\n(§3) Cells (AML-12, Hepa-1.6, HEK-293, primary human and murine hepatocytes) were treated with different concentrations of Compound 1 or Compound 17. Total RNA was extracted from cells using TRIzol (Invitrogen) according to the manufacturer's instructions. The RNA was treated with DNase, and 2 μg of RNA was used for reverse transcription (RT). 50× diluted cDNA was used for RT-quantitative PCR (RT-qPCR) reactions. The RT-qPCR reactions were performed using the Light-Cycler system (Roche Applied Science) and a qPCR Supermix (QIAGEN) with the indicated primers. The average of at least three technical repeats was used for each biological data point."}, "[2]": {"system": "SOD2", "experiment": "Modulation of SOD2 activity in AML-12 cells", "format": "cell-based, mouse", "details": "24 hours", "method": "Primary hepatocytes or AML-12 cells are lysed and total protein concentration is determined using the Bradford assay. SOD2 activity is determined at indicated times after treatment with a compound of Formula (I), Formula (Ia), Formula (Ib), Formula (II), or Formula (III), or a pharmaceutically acceptable salt thereof, using a SOD Assay Kit. Absorbance is determined and results are expressed in U/ml/mg of protein according to the standard curve and measured protein concentration. […]\nPrimary hepatocytes or AML-12 cells were then lysed in a 20 mM HEPES buffer (Gibco), pH 7.2, containing 1 mM EGTA (Sigma), 210 mM mannitol (Sigma), and 70 mM sucrose (AMRESCO). Total protein concentration was determined using the Bradford assay (BioRad). SOD-2 activity was determined at indicated times after ACMSD inhibitor treatment by the SOD Assay Kit (Cayman Chemical) according to the manufacturer's instructions. […] Absorbance was determined with a Victor X4 multi-label plate reader (Perkin-Elmer) at 450 nm. Results are expressed in U/ml/mg of protein according to the standard curve and measured protein concentration."}, "[3]": {"biological_target": "hERG potassium channel (Homo sapiens (Human), UniProt Q12809)", "sequence (Q12809 whole entry)": "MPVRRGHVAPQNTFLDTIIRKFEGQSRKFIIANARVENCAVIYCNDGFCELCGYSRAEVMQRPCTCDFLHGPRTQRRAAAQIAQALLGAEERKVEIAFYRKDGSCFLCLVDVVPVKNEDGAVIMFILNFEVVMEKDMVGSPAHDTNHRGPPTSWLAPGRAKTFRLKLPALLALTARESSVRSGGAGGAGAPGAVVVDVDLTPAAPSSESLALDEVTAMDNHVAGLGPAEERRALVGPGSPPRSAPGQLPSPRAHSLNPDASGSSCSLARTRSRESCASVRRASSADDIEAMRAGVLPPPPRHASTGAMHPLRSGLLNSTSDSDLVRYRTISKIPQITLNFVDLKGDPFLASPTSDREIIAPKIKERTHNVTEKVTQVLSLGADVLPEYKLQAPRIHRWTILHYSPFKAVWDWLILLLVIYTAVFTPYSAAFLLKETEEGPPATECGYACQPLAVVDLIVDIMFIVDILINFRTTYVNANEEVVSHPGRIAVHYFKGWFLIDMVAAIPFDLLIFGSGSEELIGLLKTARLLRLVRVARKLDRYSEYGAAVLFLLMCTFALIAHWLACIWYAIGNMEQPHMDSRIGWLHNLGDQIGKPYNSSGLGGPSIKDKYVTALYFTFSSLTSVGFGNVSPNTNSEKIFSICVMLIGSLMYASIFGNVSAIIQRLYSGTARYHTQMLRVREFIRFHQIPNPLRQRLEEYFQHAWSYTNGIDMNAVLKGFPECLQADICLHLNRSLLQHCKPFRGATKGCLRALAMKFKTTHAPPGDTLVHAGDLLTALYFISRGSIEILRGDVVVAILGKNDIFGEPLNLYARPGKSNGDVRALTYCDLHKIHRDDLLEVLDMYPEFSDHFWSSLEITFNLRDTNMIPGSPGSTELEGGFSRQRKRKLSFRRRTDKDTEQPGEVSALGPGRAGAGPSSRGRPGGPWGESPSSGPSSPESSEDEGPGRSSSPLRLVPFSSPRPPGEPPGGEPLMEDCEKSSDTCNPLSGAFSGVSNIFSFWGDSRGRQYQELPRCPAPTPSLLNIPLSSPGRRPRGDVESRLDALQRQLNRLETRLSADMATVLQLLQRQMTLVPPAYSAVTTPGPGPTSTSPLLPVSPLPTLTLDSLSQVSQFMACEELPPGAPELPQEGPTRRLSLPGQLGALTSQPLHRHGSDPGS", "experiment": "Predictor hERG assay, fluorescence polarization tracer displacement", "details": "hERG channel affinity binding; DMSO 1%", "description": "The Predictor hERG assay kit is stably transfected with hERG potassium channel and a high-affinity red fluorescent hERG channel ligand and is used for the determination of hERG channel affinity binding of compounds of Formula (I), Formula (Ia), Formula (Ib), Formula (II), or Formula (III), or a pharmaceutically acceptable salt thereof. Compounds that bind to the hERG channel protein (competitors) are identified by their ability to displace the tracer which results in a lower fluorescence polarization.\nThe Predictor hERG assay kit (Invitrogen), containing membrane preparations from Chinese hamster ovary cells stably transfected with hERG potassium channel and a high-affinity red fluorescent hERG channel ligand (tracer), was used for the determination of hERG channel affinity binding of the test compounds in Table 2. Compounds that bind to the hERG channel protein (competitors) were identified by their ability to displace the tracer, resulting in a lower fluorescence polarization. The final concentration of DMSO in each well was maintained at 1%. The assays were performed according to the manufacturer's protocol (Invitrogen)."}, "[4]": {"system": "SOD2", "experiment": "Modulation of SOD2 activity in murine primary hepatocytes", "format": "cell-based, mouse", "details": "primary murine hepatocytes; 24 hours", "method": "Primary hepatocytes or AML-12 cells are lysed and total protein concentration is determined using the Bradford assay. SOD2 activity is determined at indicated times after treatment with a compound of Formula (I), Formula (Ia), Formula (Ib), Formula (II), or Formula (III), or a pharmaceutically acceptable salt thereof, using a SOD Assay Kit. Absorbance is determined and results are expressed in U/ml/mg of protein according to the standard curve and measured protein concentration.\nPrimary hepatocytes were prepared from 8-12-week-old C57BL/6J mice by collagenase perfusion method. Mouse livers were perfused with Hank's balanced salt solution (HBSS, KCl, 5.4 mM; KH2PO4, 0.45 mM; NaCl, 138 mM; NaHCO3, 4.2 mM; Na2HPO4, 0.34 mM; glucose, 5.5 mM; […]; EGTA, 50 mM; CaCl2, 50 mM; pH 7.4). Livers were then washed at a rate of 5 ml/min through the portal vein. After washing, livers were perfused with collagenase (0.025%) solution. Cell viability was assessed by the trypan blue method. Isolated primary hepatocytes were plated with DMEM medium (Gibco) including 10% FCS, 10 units per ml penicillin and HEPES for buffering. The cells were maintained in culture at 37° C. in a humidified atmosphere of 5% CO2/95% air. After 6-8 hrs of attachment, this medium was replaced with media containing different concentrations of an ACMSD inhibitor (i.e., Compound 1 or Compound 17) or with the corresponding concentration of DMSO (as a control). Primary hepatocytes were harvested about 24 hrs later if not indicated differently.\nPrimary hepatocytes or AML-12 cells were then lysed in a 20 mM HEPES buffer (Gibco), pH 7.2, containing 1 mM EGTA (Sigma), 210 mM mannitol (Sigma), and 70 mM sucrose (AMRESCO). Total protein concentration was determined using the Bradford assay (BioRad). SOD-2 activity was determined at indicated times after ACMSD inhibitor treatment by the SOD Assay Kit (Cayman Chemical) according to the manufacturer's instructions. In order to specifically detect the SOD2 activity 2 mM potassium cyanide was added to the assay, which inhibited both Cu/Zn-SOD and extracellular SOD, resulting in the detection of only Mn-SOD (SOD-2) activity. Absorbance was determined with a Victor X4 multi-label plate reader (Perkin-Elmer) at 450 nm. Results are expressed in U/ml/mg of protein according to the standard curve and measured protein concentration."}, "[5]": {"system": "HePG2 cells", "experiment": "Cytotoxicity (LDH release, ATP level) in HePG2 cells", "format": "cell-based", "details": "10 nM to 300 μM; 4 hrs; DMSO 1%", "method": "(§4) HePG2 and AML-12 cells are seeded and a dose-response of the compound is performed at various concentrations. Cells are stimulated and the supernatant is used to perform LDH release as a measure of necrosis while the cells are lysed to detect ATP levels for determining cell viability.\n(§5) Cytotoxicity: 20000 HePG2 and AML-12 cells were seeded in 96 well plate (Viewplate PerkinElmer). Dose-response of the compound in Table 2 was performed using HP D300 digital dispenser, ranging from 10 nM to 300 μM with constant DMSO 1% in medium. Cells were stimulated for 4 hrs at 37° C.; the supernatant was used to perform LDH release (Cytotox-one, Promega) as a measure of necrosis while the cells were lysed to detect ATP level for determining cell viability (Celltiter-glo, Promega) according to manufacturer's instructions."}, "[6]": {"system": "AML-12 cells", "experiment": "Cytotoxicity (LDH release, ATP level) in AML-12 cells", "format": "cell-based, mouse", "details": "10 nM to 300 μM; 4 hrs; DMSO 1%", "method": "as §4, §5"}, "[7]": {"biological_target": "ACMSD-1 (Homo sapiens (Human), UniProt Q8TDX5)", "sequence (Q8TDX5 whole entry)": "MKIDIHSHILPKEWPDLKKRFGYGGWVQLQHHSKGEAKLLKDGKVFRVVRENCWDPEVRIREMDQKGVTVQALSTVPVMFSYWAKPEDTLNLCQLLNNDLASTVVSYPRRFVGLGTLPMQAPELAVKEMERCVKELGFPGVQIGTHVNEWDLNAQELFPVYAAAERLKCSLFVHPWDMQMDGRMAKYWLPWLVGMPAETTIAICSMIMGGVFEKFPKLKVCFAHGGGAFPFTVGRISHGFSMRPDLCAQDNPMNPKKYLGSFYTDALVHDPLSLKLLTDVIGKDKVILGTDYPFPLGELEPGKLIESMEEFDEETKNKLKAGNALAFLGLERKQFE", "experiment": "ACMSD-1 modulation in HEK293T cells transiently expressing ACMSD", "format": "cell-based", "details": "about 50 nM to about 5 uM, 48 hrs to 72 hrs", "procedure": "HEK293T cells are seeded and transfected to transiently express ACMSD. The cells are then stimulated with different concentrations of Compound 1, and then lysed to measure the ACMSD activity in a spectrophotometrical in vitro assay. The amount of the whole protein content in cell lysates is detected by Bradford analysis and used to get the specificity activity of the enzyme normalized in all samples.\nHEK293T cells (ATCC) were seeded in six-well plates and transfected using Fugene HD to express transiently ACMSD. 24 hrs post transfection, the cells were stimulated for 48 hrs to 72 hrs with different concentrations of Compound 1 and then lysed to measure the ACMSD activity, by measuring the conversion of 30H-Anthranilic Acid into product (i.e. α-amino-beta-carboxymuconate-ε-semialdehyde, ACMS) in a spectrophotometrical in vitro assay. The amount of the whole protein content in cell lysates was detected by Bradford analysis. This value was used to get the specificity activity of the enzyme normalized in all samples (mU/ml or ΔE/Δt/mg of total protein).\nHaving determined the optimum stimulation time and transfection protocol cells were stimulated with different concentrations of Compound 1 (about 50 nM to about 5 uM)."}, "[8]": {"system": "SIRT1-regulated genes (Sod2)", "experiment": "RT-qPCR analysis of SIRT1-regulated genes in AML-12 cells", "format": "cell-based, mouse", "details": "24 hrs", "method": "as §1, §2, §3"}, "[9]": {"system": "FoxO1", "experiment": "FoxO1 phosphorylation levels in AML-12 cells (western blot)", "format": "cell-based, mouse", "details": "24 hours, FIG. 6", "method": "AML-12 cells are treated with different concentrations of a compound of Formula (I), Formula (Ia), Formula (Ib), Formula (II), or Formula (III), or a pharmaceutically acceptable salt thereof. Cells are then lysed, and analyzed by SDS-PAGE/western blot. Blocking and antibody incubations are then done and each protein present is detected with its specific antibody.\nAML-12 cells were treated with different concentrations of Compound 1 or Compound 17 for 24 hours. Cells were then lysed in lysis buffer (50 mM Tris, 150 mM KCl, EDTA 1 mM, NP40 1%) containing protease and phosphatase inhibitors, and analyzed by SDS-PAGE/western blot. Blocking and antibody incubations were done in 5% milk. Each protein present was detected with its specific antibody. Tubulin antibody was obtained from Sigma Inc, FoxO1 and phopho-FoxO1 (Ser256) antibodies were obtained from Cell Signaling. Antibody detection reactions were developed by enhanced chemiluminescence (Advansta, Calif., USA) using x-ray films."}},
  "data": [
    {"smiles": "N#Cc1c(-c2ccccc2)nc(SCc2cccc(C(=O)O)c2)[nH]c1=O", "note": "[Compound 1]", "values": [
      {"measurement": "Sod2 mRNA levels", "setting": "[1]", "value": "increased in a dose-dependent manner"},
      {"measurement": "SOD2 activity", "setting": "[2]", "value": "induced in a dose-dependent manner"},
      {"measurement": "hERG", "setting": "[3]", "value": "No Activity"},
      {"measurement": "SOD2 activity", "setting": "[4]", "value": "induced in a dose-dependent manner"},
      {"measurement": "Cytotoxicity Hep-G2", "setting": "[5]", "value": "Not Toxic"},
      {"measurement": "Cytotoxicity AML-12", "setting": "[6]", "value": "Not Toxic"},
      {"measurement": "ACMSD-1 activity in over-expression cell-based assay", "setting": "[7]", "value": "inhibited ACMSD-1 activity, in a dose dependent manner"},
      {"measurement": "Sod2 mRNA levels", "setting": "[8]", "value": "increased in a dose-dependent manner"},
      {"measurement": "FoxO1 phosphorylation at Ser256", "setting": "[9]", "value": "decrease in FoxO1 phosphorylation at Ser256 with increasing dose"}
    ]}
  ]
}
